Broadly, the inhibition is the drop in the measured response relative to a control, in per cent. The low end stands for a response near the control, the high end for a response far below the control. For orientation: ED50 means the midpoint of the dose-response relation. A high value points to weaker potency.

Structures are written as SMILES.

The target in one assay is T1, squalene synthase (Rattus norvegicus, UniProt Q02769).
T1 construct: from tissue; host or cells: rat liver microsomes
T1 sequence (Q02769 1-416): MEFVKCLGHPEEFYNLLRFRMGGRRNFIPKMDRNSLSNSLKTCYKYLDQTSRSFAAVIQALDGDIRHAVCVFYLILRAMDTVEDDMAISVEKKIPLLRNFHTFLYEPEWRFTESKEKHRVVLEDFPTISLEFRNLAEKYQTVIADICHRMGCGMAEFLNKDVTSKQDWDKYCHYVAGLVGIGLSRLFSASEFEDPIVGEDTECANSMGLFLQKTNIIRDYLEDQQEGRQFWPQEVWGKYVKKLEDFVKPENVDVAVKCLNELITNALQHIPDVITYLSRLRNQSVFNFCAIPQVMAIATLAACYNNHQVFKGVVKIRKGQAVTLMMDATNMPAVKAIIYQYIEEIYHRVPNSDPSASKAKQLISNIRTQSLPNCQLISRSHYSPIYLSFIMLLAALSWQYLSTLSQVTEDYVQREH
As to the kind of experiment: Inhibition of squalene synthase (formation of squalene from tritiated farnesyl pyrophosphate, rat liver microsomal protein). The assay is classed as biochemical. The settings on record: at a concentration of 2.5µM, substrate 20µM. The protocol:
(a) Inhibition of Squalene synthase
In this test, the ability of a compound to prevent the formation of squalene from a radioactive substrate (tritiated farnesyl pyrophosphate) is assessed.
The test compound is incubated at a concentration of 25 micromolar in 200µl of a buffered solution containing potassium phosphate (50mM), MgCl2 (4.95mM), KF (9.9mM), NADPH (0.9mM) and rat liver microsomal protein (20µg). Rat liver microsomes are prepared by the method described in published European Patent Application No. 324,421 and stored in liquid nitrogen prior to assay. Assay vials are kept at 37°C throughout the incubation.
The reaction is started with the addition of the substrate (1-(^3H]-farnesyl pyrophosphate), final concentration 20µM, and stopped after 15 minutes reaction time with the addition of 50µl of 4% KOH. The reaction products are separated from unreacted substrate after application to a C-18 octadecyl 1ccBond column (Analytichem Int product No. 617101). An aqueous fraction is eluted with 250µl of 0.1M KOH. Squalene is then eluted with 1.0 ml 10% ethylacetate in hexane and radioactivity determined. The difference in radioactivity in the presence and absence of the test compound is used to determine the level of inhibition. […] The IC50 can then be determined from a plot of percentage inhibition against concentration of test compound.
(Liver microsomes are a subcellular fraction often used to study metabolism.)

For assay [1], the system named is de novo hepatic cholesterol synthesis. As to the kind of experiment: Acute rat cholesterol synthesis assay (de novo hepatic cholesterol synthesis from 14C-acetate). The conditions noted are these: for ED50: 14C-acetate. Format: in vivo. The protocol: (b) Acute rat cholesterol synthesis assay.
This is an acute in vivo test in the rat to measure de novo hepatic cholesterol synthesis from exogenously administered ^14C-acetate.
Female rats (35 - 55 g) are housed in reverse lighting conditions (red light from 0200h - 1400h) for a period of about 2 weeks prior to test. Animals are allowed free access to chow and drinking water throughout this period. At test, animals should weigh 125 - 150 g. Test compounds may be administered by oral gavage, dissolved or suspended in 0.5% polysorbate, or by ip or iv dosing. Control animals receive vehicle alone. After 1 hour the rats are injected ip with 25µCi [2-^14C]-acetate (NEN DUPONT. specific activity, 45-60mCi/mmol NEC-085H, or AMERSHAM specific activity, 50-60mCi/mmol CFA 14) in a volume of 0.25 ml saline (100µCi/ml). After a further hour, rats are terminally anaesthetised with halothane and a blood sample obtained from the abdominal vena cava.
1ml of plasma is lyophilised and then saponified in 2ml ethanolic KOH (1 part 33% KOH, 9 parts ethanol) at 75°C for 2 hours. After addition of an equal quantity of water, non-saponifiable lipids are extracted with two 5ml volumes of hexane. The hexane extracts are evaporated to dryness and the residues dissolved in ethanol to determine cholesterol specific radioactivity. ED50 values can be determined in the standard way.

At squalene synthase, `OC1(c2ccc(-c3ccc4ccccc4n3)cc2)CN2CCC1CC2` (centres unmarked) [Example 3, 3-[4-(2-quinolyl)phenyl)quinuclidin-3-ol] displayed an inhibition at 2.5 µM of around 71%. Moreover, in assay [1], the ED50 was around 14 mg/kg. Moreover, in assay [1] (dose not given), the “reduction in the rate of cholesterol biosynthesis” value was 74%.

Compound `OC1(c2ccc(-c3nc4ccccc4o3)cc2)CN2CCC1CC2` (centres unmarked) [Example 6, 3-[4-(benzoxazol-2-yl)phenyl]quinuclidin-3-ol] returned an ED50 in assay [1] of around 4.5 mg/kg.

`OC1(c2ccc(-c3cnc4ccccc4c3)cc2)CN2CCC1CC2` (centres unmarked) [Example 12, 3-[4-quinol-3-ylphenyl]quinculidin-3-ol] registered an ED50 in assay [1] of around 3.8 mg/kg.

Source of the values: EP0674635B1, “QUINUCLIDINE DERIVATIVES AS SQUALENE SYNTHASE INHIBITORS” (Syngenta Limited, priority 1992, dated 1994).
